≈ marks a conversion by molar mass, not a printed value. Where two headings read alike, the source gives them in different places.
What was measured:
[1] = NMR-pH titrations (acid dissociation constants, species distribution); assay type: physicochemical; conditions: for pKa: aqueous solution, 95% (v/v) H2O and 5% (v/v) D2O; for mole fraction of the monoanionic form ([H2B]−): calculated from pKa values
Experimental: NMR-pH titrations were performed on a Varian VNMRS spectrometer (600 MHz for ^1H). Spectra were recorded at 25°C. Titrations were carried out in solutions containing 95% (v/v) H2O and 5% (v/v) D2O, with the addition of small amounts of 0.1 M HCl and NaOH. One molar NaOH and solid NaOH crystals were also used to achieve highly basic pH values. The ionic strength was kept at 0.15 M by the presence of NaCl. The concentration of baicalin and its methyl ester was 1.0 × 10^−3 M and ascorbic acid was used in large excess (5.0 × 10^−3 M) to prevent the oxidation of the studied catechol molecules in alkaline solutions. The sample volume was 600 μl. NMR spectra were referenced to the internal standard DSS (sodium 3-(trimethylsilyl)-1-propanesulfonate). The water signal was suppressed by presaturation. Spectra were processed with VNMRj 3.2a software. pH values were read on a Metrohm 2.780.0010 precision pH meter with a 6.0258.600 Unitrode glass Pt 1000 electrode (Metrohm AG, Herisau, Switzerland). The pH-potentiometric system was calibrated using pH 1.68, 4.01, 6.87, 9.18 aqueous buffer solutions. In highly basic solutions, pH was measured by NMR-pH indicator molecules as well to avoid the uncertainty of the glass electrode pH-meter readings in such solutions [24]. The concentration of these pH indicators was 1.0 mM. For the analysis of NMR titration curves of proton chemical shifts versus pH, the software Origin Pro 8 (OriginLab Corp., Northampton,MA, USA) was used.
In baicalin, there are 12 protons connected to carbon atoms, but in ^1H NMR spectra, only the singlets of H8 and H3 on ring A and the doublet of the aromatic H2’,6′ protons can be easily assigned, while the other aromatic protons occur in complex spectrum of multiplets. The protons of the monosaccharide unit overlap with each other and with the signals of the antioxidant ascorbic acid. The suppression of the large water signal also interferes with the observation of certain NMR signals. Thus, during the NMR-pH titration, we followed the above-mentioned three chemical shift signal sets.
Since protonation processes are instantaneous on the NMR chemical shift time scale, the observed chemical shift (δ^obsd) of a certain nucleus can be expressed as a weighted average of chemical shifts of the non-, mono-, di- and triprotonated forms of baicalin (B):2 δ^obsd=δB^3‐xB^3‐+δHB^2‐xHB^2‐+δH2B^−xH2B^−+δH3BxH3B where weighting factors are mole fractions that can be expressed in terms of stepwise protonation macroconstants and the actual hydrogen ion concentration. For example, xH2B^− is:3 xH2B^−=K1K2H^+^2/1+K1H^++K1K2H^+^2+K1K2K3H^+^3
Combining and rearranging Eqs. (2) and (3) yield Eq. (4) that can be directly fitted to the ^1H-NMR titration curve of each nucleus observed.4 δ^obsd=δB^3‐+δHB^2‐K1H^++δH2B^−K1K2H^+^2+δH3BK1K2K3H^+^3/1+K1H^++K1K2H^+^2+K1K2K3H^+^3
The logarithms of the obtained protonation constants correspond to the negative logarithms of dissociation constants, namely pKa1 = logK3, pKa2 = logK2 and pKa3 = logK1 [28].

[2] = Stability in alkaline solution observed by NMR; assay type: physicochemical
Text: Baicalin has three acidic functional moieties, one carboxyl and two phenolic hydroxyl groups. Proton transfer processes can be regarded either from the aspect of dissociation or association. Because of the acidic nature of baicalin, these processes will be characterized here in terms of acid dissociation constants (Ka). Carboxylic acids are typically orders of magnitude stronger than phenols. The determination of baicalin dissociation constants is hampered by its poor water solubility and sensitivity of oxidation of the catechol structure on its A ring. The acid/base properties of baicalin have been investigated earlier, resulting in pKa1, pKa2 and pKa3 values of 5.05, 7.6 and 10.1, respectively. […] We decided to undertake the characterization of baicalin by NMR-pH titrations, where the molecule was protected from oxidation by the antioxidant ascorbic acid up to pH ≈ 13.
NMR-pH titrations were performed on a Varian VNMRS spectrometer (600 MHz for ^1H). Spectra were recorded at 25°C. […] Spectra were processed with VNMRj 3.2a software. pH values were read on a Metrohm 2.780.0010 precision pH meter with a 6.0258.600 Unitrode glass Pt 1000 electrode (Metrohm AG, Herisau, Switzerland). […] In highly basic solutions, pH was measured by NMR-pH indicator molecules as well to avoid the uncertainty of the glass electrode pH-meter readings in such solutions [24]. […]

[3] = set-up: method as in PMID 19722585; conditions: cited from earlier work
[4] = Thermodynamic solubility by saturation shake-flask method; assay type: physicochemical; conditions: 37°C
Experimental: A total of 0.94 g of 1 M HCl and 0.35 g of NaCl were diluted and dissolved to 1000 ml with distilled water and used as simulated gastric fluid (SGF) with pH 1.2. This medium served as solvent for the measurement of intrinsic solubility of baicalin.
A total of 250 ml of 0.2 M […] and 77 ml of 0.2 M NaOH were homogenized and diluted to 1000 ml with distilled water. This medium served as simulated intestinal fluid (SIF) with pH 6.8.
Blank buffer of FaSSGF pH 1.6 (1.99 g NaCl dissolved in 900 ml distilled water, adjusted the pH to 1.6 with 1 M HCl and filled to 1000 ml with distilled water) and phosphate buffer pH 6.5 (0.42 g NaOH pellets + 3.95 g NaH2PO4 monohydrate + 6.19 g NaCl dissolved in 900 ml distilled water, adjusted the pH to 6.5 with either 1 M NaOH or 1 M HCl and filled to 1000 ml with distilled water) were prepared as stock solutions.
FaSSGF was produced from blank buffer of FaSSGF pH 1.6, which was completed by 0.08 mM sodium taurocholate, 0.02 mM lecithin, 0.1 mg/ml pepsin and has osmolality of 120 ± 2.5 mOsmol/kg. To obtain the FaSSIF medium, 100 ml of blank phosphate buffer (pH 6.5) was made up by 3 mM sodium taurocholate and 0.75 mM lecithin. FaSSIF has an osmolality of 270 ± 10 mOsmol/kg.
The thermodynamic solubility of baicalin in various media was determined by saturation shake-flask method based on the method of Baka et al.. Briefly, 10 mg of baicalin was added to 5 ml of each solvent in sealed vials. All samples were stirred (approx. 500 rpm) and thermostated (IKA RT-5 power heatable magnetic stirrer, IKA Work Inc., USA) at 37 ± 0.5°C for 24 h allowing it to achieve thermodynamic equilibrium. After this period, 24 h of sedimentation cycle was adopted without stirring at 37 ± 0.5°C. To improve the efficacy of phase-separation, the saturated supernatant of samples was centrifuged at 14,000 rpm for 15 min (Herolab MicroGen 16, Herolab GmbH, Wiesloch, Germany). The aliquots (250 μl) taken for solubility experiments were suitably diluted with blank buffers and the absorbance was measured at λ = 316 nm by UV spectroscopy (Agilent 8453 UV-Visible Spectrophotometer, Agilent Technologies Ltd., USA). […] Ideally, λmax selected for the analysis of drug should not show any interference due to solvents and excipients present in the dissolution medium. […] In the solubility study, thus, λmax 316 nm was selected for the quantification of baicalin. […] All experiments were repeated three times and results were calculated from the linear calibration curve of baicalin in each media. Data are expressed as mean ± SD (μg/ml).

[5] = set-up: method as in PMID 19722585; conditions: reported as "1.27 (pH 7)"; cited from earlier work
[6] = set-up: method as in PMID 26579386; conditions: cited from earlier work
[7] = Distribution coefficient measurements by the stir-flask method (octanol/water); assay type: physicochemical
Experimental: The distribution coefficients were calculated from the absorbance of the molecules before and after partitioning at several octanol/water phase ratios. For the pH control, a pH 7.40 phosphate buffer and a standardized HCl solution were used, with an ionic strength of 0.15 M in both cases. The pH of the phosphate buffer was measured using a Metrohm 6.0204.100 combined pH glass electrode and a Metrohm 780 pH meter. The concentration change of baicalin was followed by UV-absorbance measurements. […] Then, the two phases were intensively stirred for 2 h in thermostated double-walled glass cells at constant temperature (25 ± 0.1°C). After separation of the equilibrated phases and centrifugation, the concentration of baicalin was determined by UV spectrophotometry (Perkin-Elmer Lambda 15) at several values at 279 nm (λmax). The distribution coefficients were calculated from the absorbance of baicalin before and after partitioning. […]
For baicalin, the pH-dependent distribution coefficient is the sum of four products:5 DpH=ΣxiPi=xB^3‐PB^3‐+xHB^2‐PHB^2‐+xH2B^−PH2B^−+xH3BPH3B where xi mole fractions are the pH-dependent quantities, while Pi parameters are the pH-independent ones. […]
The mole fraction data can be calculated similarly as shown in Eq. (3); thus, the partition coefficient of the anionic form can be obtained. […]

[8] = set-up: method as in PMID 16107266; conditions: cited from earlier work
[9] = NMR-pH titration, 25°C, ionic strength 0.15 M, ascorbic acid as antioxidant
[10] = UV-pH titration, called highly dubious by the authors

Q: For COC(=O)[C@H]1O[C@@H](Oc2cc3oc(-c4ccccc4)cc(=O)c3c(O)c2O)[C@H](O)[C@@H](O)[C@@H]1O [Baicalin methyl ester], which “pKa1 (acid dissociation constant)” value [1, 9] is on record?
A: 8.78

Q: And the “pKa2 (acid dissociation constant)” value [1, 9]?
A: > 14

Q: Which results are given for O=C(O)[C@H]1O[C@@H](Oc2cc3oc(-c4ccccc4)cc(=O)c3c(O)c2O)[C@H](O)[C@@H](O)[C@@H]1O [Baicalin, 7-D-glucuronic acid-5,6-dihydroxyflavone]?
A: stability in alkaline solution (decomposition) ([2]; NMR investigations, without antioxidant): rapidly decomposes above pH 9; stability in alkaline solution (oxidation) ([2]; in the presence of a large excess of ascorbic acid): rapid oxidation of baicalin above pH 13; pKa2 [3, 10]: 7.6; pKa3 [3, 10]: 10.1; pKa1 ([3]; earlier investigation): 5.05; solubility thermodynamic at 24 h ([4]; distilled water (Aqua dest.), read-out: Thermodynamic solubility): 67 µg/mL (≈ 150 µM); solubility thermodynamic at 24 h ([4]; fassgf or other biorelevant, thermodynamic from solid, pH 1.6 FaSSGF, read-out: Thermodynamic solubility): 33.2 µg/mL (≈ 74.4 µM); solubility thermodynamic at 24 h ([4]; simulated gastric fluid (SGF), simulated gastric fluid, thermodynamic from solid, pH 1.2 SGF, read-out: Thermodynamic solubility (intrinsic solubility)): 11.6 µg/mL (≈ 26.1 µM); solubility thermodynamic at 24 h ([4]; simulated intestinal fluid (SIF), fassgf or other biorelevant, thermodynamic from solid, pH 6.8 SIF, read-out: Thermodynamic solubility): 10500 µg/mL (≈ 23500 µM); solubility thermodynamic at 24 h ([4]; thermodynamic from solid, pH 6.5 FaSSIF, read-out: Thermodynamic solubility): 8110 µg/mL (≈ 18200 µM); log P [5]: 1.27; water solubility [6]: 54 µg/mL (≈ 121 µM); pKa ([1]; NMR-pH titration, 25°C, ionic strength 0.15 M, ascorbic acid as antioxidant, read-out: pKa1 (acid dissociation constant)): 4.21; pKa ([1]; NMR-pH titration, 25°C, ionic strength 0.15 M, ascorbic acid as antioxidant, read-out: pKa2 (acid dissociation constant)): 8.56; pKa ([1]; NMR-pH titration, 25°C, ionic strength 0.15 M, ascorbic acid as antioxidant, read-out: pKa3 (acid dissociation constant)): > 14; mole fraction of the monoanionic form ([H2B]−) ([1]; pH 6.8 SIF): 98.0%; relative concentration of the dianionic form (HB2−) ([1]; pH 7.40, calculated from pKa values): 6.5%; mole fraction of the monoanionic form ([H2B]−) ([1]; pH of blood (pH 7.40)): 93.5%; difference between the lipophilicity of the neutral and the anionic form [7]: 2.56 log unit; logD at 2 h ([7]; standardized 0.15 M HCl solution, 25°C, SD in brackets, read-out: log D (characterizes the log P of the neutral form)): 1.28; absolute bioavailability [8]: 2.2 ± 0.2%
